In US7919091B2, “Lipolysis stimulated receptor (LSR) specific antibodies” (Serono Genetics Institute S.A., priority 1997, dated 2011):

What was measured:
LSR receptors = format: cell-based, rat; details: after leptin; 5 μM cycloheximide or 2.5 μM cytochalasin B, 30 min 37° C.
Protocol: Primary cultures of rat hepatocytes are incubated for 30 min at 37° C. in the presence or in the absence of 20 ng/ml of leptin, for 10 min at 37° C. in the presence of 0.8 mM oleate. The cells are washed with PBS buffer precooled to 4° C., and then incubated for 2 hours at 4° C. in the presence of increasing concentrations of ^125I-LDL. The cells are then washed, lysed and the quantity of bound ^125I-LDL is measured.
The initial conditions are identical to those described above; after incubation with leptin, the cells are incubated for 30 min at 37° C. with 5 μM cycloheximide, 5 μM colchicine or 2.5 μM cytochalasin B. The cells are then incubated for 10 min at 37° C. in the presence of 0.8 mM oleate. The cells are then washed with PBS buffer precooled to 4° C., and then incubated for 2 hours at 4° C. in the presence of 50 μg/ml of ^125I-LDL. 2 measurements are carried out, and the mean results are presented.

LSR = target: T1, LSR (Rattus norvegicus, UniProt Q9WU74); test: Effect of C1q on binding, internalization and degradation of LDLs by hepatocytes in primary culture; format: cell-based
T1 sequence (Q9WU74 36-593): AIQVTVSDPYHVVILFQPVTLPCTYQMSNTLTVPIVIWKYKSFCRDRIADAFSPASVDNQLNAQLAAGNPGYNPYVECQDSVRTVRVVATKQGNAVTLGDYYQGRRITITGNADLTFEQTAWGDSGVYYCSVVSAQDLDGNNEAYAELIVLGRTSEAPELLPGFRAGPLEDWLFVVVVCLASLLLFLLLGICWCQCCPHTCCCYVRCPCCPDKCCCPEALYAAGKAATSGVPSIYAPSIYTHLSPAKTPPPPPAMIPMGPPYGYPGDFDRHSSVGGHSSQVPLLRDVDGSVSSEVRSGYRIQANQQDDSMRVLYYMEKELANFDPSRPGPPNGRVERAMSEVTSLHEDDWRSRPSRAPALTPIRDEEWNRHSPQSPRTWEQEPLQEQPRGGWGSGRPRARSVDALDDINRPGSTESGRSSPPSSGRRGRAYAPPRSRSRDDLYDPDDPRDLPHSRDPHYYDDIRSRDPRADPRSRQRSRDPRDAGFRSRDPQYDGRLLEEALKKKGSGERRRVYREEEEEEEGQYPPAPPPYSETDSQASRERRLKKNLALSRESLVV
T1 sequence (Q9WU74 36-525 isoform Q9WU74-3 limits assumed): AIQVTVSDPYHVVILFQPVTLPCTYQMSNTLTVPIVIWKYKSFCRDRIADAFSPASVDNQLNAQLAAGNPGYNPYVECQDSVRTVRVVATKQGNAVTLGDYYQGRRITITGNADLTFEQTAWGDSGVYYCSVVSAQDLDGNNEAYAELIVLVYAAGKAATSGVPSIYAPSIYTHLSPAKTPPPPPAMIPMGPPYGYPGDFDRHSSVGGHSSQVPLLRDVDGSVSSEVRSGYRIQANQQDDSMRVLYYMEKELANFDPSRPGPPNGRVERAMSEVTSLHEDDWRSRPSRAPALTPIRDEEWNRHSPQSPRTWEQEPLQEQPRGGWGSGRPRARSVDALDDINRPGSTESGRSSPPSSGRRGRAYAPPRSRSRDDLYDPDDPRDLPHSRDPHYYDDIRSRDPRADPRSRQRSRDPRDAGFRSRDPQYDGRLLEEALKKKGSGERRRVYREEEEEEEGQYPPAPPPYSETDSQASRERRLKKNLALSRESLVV
Protocol: The LSR activity in the primary cultures of rat hepatocytes is measured by the binding, internalization and degradation of ^125I-LDL and ^125I-VLDL (LDL: low-density lipoprotein; VLDL: very low-density lipoprotein), as described in Bihain and Yen, 1992 and Mann et al., 1995.
It has been shown that gC1q-R could bind the globular head of […]. We sought to use this property of C1q to displace gC1q-R combined with LSR, and we measured the effect of increasing doses of C1q on the binding, internalization and degradation of the LDLs by hepatocytes in primary culture.

Compound | induction by leptin of the LSR activity (increase in apparent number of receptors) (LSR receptors) | capture and degradation of LDLs (LSR; C1q, in the presence of oleate) | capture and degradation of LDLs (LSR; human C1q, in the absence of oleate)
C[C@@H]1C[C@@H]([C@H](O)CC2CC(=O)NC(=O)C2)C(=O)[C@@H](C)C1 [cycloheximide] | partially inhibited |  | 
C1q: human complement factor C1q, binds gC1q-R |  | less substantial, but nevertheless significant, increase | increase
C=C1[C@@H](C)[C@H]2[C@H](Cc3ccccc3)NC(=O)[C@]23OC(=O)/C=C/[C@H](O)CCC[C@@H](C)C/C=C/[C@H]3[C@@H]1O [cytochalasin B] | inhibited |  | 
